# Values of other authors as cited in patent publication US20230293488A1, “COMPOSITIONS AND METHODS OF USE OF ANTIBACTERIAL DRUG COMBINATIONS” (priority 2015, published 2023).
# Details: in vivo, iv; cited from earlier work
compound,measurement,value
C[C@@H](O)[C@H]1C(=O)N2C(C(=O)O)=C(S[C@@H]3CN[C@H](C(=O)N(C)C)C3)[C@H](C)[C@H]12 [Meropenem],mean peak plasma concentration,112 µg/mL
